Data on 4 molecules can be found in ChEMBL document CHEMBL2016443, “From ApoA1 upregulation to BET family bromodomain inhibition: discovery of I-BET151” (Bioorg Med Chem Lett, 2012).

Active and inactive are the calls of the source. The rule behind the calls is not given here.

The test system of series [1] is Mus musculus. In words: Antiinflammatory activity in LPS-stimulated acute inflammation BALB/c mouse model assessed as inhibition of plasma IL-6 level at 10 mg/kg, po administered 2 hrs before LPS challenge. The series is classed as functional.
In series [2] the test system is Mus musculus. In words: Antiinflammatory activity in LPS-stimulated acute inflammation BALB/c mouse model assessed as inhibition of plasma TNF-alpha level at 10 mg/kg, po administered 2 hrs before LPS challenge. The series is classed as functional.
The test system of series [3] is Mus musculus. Nature of the series: Antiinflammatory activity in LPS-stimulated acute inflammation BALB/c mouse model assessed as inhibition of plasma PAI-1 level at 10 mg/kg, po administered 2 hrs before LPS challenge. The class given is functional.
Series [4] deals with Mus musculus. Nature of the series: Antiinflammatory activity in LPS-stimulated acute inflammation BALB/c mouse model assessed as inhibition of plasma MCP-1 level at 10 mg/kg, po administered 2 hrs before LPS challenge. The class given is functional.
A further series concerns THP-1. In words: Antiinflammatory activity in human THP1 cells. The class given is functional, cell-based.
The species named for series [5] is Rattus norvegicus. Nature of the series: (§1) Half life in CD rat. The series is classed as ADME, organism-based. To be noted: in vivo.
The target of the next series is Cytochrome P450 2C9 (Homo sapiens, UniProt P11712). In words: Inhibition of CYP2C9. The series is classed as ADME.
Cytochrome P450 2C9, sequence (P11712 whole entry): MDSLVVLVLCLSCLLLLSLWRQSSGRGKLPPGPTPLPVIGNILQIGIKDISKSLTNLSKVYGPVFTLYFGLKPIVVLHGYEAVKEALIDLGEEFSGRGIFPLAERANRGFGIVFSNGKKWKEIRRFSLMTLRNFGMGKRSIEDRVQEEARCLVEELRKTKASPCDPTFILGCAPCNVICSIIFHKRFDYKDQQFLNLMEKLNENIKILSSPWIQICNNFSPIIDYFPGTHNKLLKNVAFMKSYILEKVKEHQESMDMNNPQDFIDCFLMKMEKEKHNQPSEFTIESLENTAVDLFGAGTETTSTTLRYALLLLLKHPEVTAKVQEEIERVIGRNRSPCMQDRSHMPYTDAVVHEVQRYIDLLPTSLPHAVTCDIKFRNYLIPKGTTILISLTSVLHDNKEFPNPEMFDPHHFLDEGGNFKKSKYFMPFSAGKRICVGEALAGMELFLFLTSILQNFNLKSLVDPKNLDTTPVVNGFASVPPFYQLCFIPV
For series [6], the system named is Hepatocyte. Nature of the series: Bioactivation in rat hepatocytes assessed as compound epoxidation. The class given is cell-based.
The subject of series [7] is Hepatocyte. Nature of the series: Bioactivation in human hepatocytes assessed as compound epoxidation. The series is classed as cell-based.
The species named for series [8] is Rattus norvegicus. In words: Dose normalized AUC (0 to infinity ) in CD rat. The series is classed as ADME, organism-based. To be noted: in vivo.
In the next series the test system is HepG2. In words: Upregulation of ApoA1 expression in human HepG2 cells assessed as concentration required to increase 70% of luciferase activity after 18 hrs by luciferase reporter gene assay. The series is classed as functional.
In series [9] the test system is Hepatocyte. Nature of the series: Bioactivation in rat hepatocytes assessed as glutathione trapping. The class given is cell-based.
A short description of series [10]: Volume of distribution at steady state in CD rat. The class given is ADME, organism-based. To be noted: in vivo, read-out: Vdss.
The test system of series [11] is PBMC. In words: Inhibition of LPS-stimulated IL-6 production in human PBMC. The series is classed as functional, cell-based.
A further series relates to Salmonella typhimurium. Nature of the series: Mutagenic activity in Salmonella typhimurium by Ames assay. The class given is toxicity, organism-based. To be noted: salmonella enterica subsp. enterica serovar typhimurium. (The Ames test detects mutagens through reverse mutation in bacteria.)
Series [12] relates to Hepatocyte. In words: Bioactivation in human hepatocytes assessed as glutathione trapping. The class given is cell-based.
Series [13] deals with PBMC. Nature of the series: Inhibition of LPS-stimulated TNFalpha production in human PBMC. The series is classed as functional, cell-based.
A short description of series [14]: Oral bioavailability in CD rat. The class given is ADME, organism-based. To be noted: in vivo.
Series [15] can be described thus: as §1. To be noted: CD, in vivo. The series is classed as ADME, organism-based.
In a further series the target is Cytochrome P450 3A4 (Homo sapiens, UniProt P08684). In words: Inhibition of CYP3A4. The class given is ADME.
Cytochrome P450 3A4, sequence (P08684 whole entry): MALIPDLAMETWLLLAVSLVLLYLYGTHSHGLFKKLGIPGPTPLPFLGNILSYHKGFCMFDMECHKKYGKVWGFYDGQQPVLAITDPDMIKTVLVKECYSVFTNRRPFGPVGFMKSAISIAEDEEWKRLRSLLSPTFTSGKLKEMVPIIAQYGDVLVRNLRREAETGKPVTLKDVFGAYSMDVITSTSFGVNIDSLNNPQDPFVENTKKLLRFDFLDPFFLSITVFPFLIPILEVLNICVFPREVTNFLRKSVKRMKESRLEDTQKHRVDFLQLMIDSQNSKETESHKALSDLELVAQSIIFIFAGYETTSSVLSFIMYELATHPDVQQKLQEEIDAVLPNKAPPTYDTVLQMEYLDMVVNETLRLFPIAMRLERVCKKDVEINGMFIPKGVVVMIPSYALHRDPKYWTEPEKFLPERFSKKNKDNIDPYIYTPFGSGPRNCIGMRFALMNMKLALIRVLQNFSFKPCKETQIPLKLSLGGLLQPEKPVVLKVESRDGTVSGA
The nature of series [16]: Clearance in iv dosed CD rat blood after 1 hr. The series is classed as ADME, organism-based. To be noted: whole blood.

Take `C[C@]12C=CC(=O)C=C1CC[C@@H]1[C@@H]2[C@@H](O)C[C@@]2(C)[C@H]1CC[C@]2(O)C(=O)CO` [PREDNISOLONE]: the inhibition in vivo at 10 mg/kg is 59% in the series on Mus musculus [1], 94% with Mus musculus [2], 43% in the series with Mus musculus [3] and 49% in the series on Mus musculus [4].
Turning to `COc1cc2c(cc1-c1c(C)noc1C)ncc1[nH]c(=O)n([C@H](C)c3ccccn3)c12`, the inhibition in vivo at 10 mg/kg was 75% with Mus musculus [1], 65% in the series on Mus musculus [2], 35% in the series with Mus musculus [3] and 47% in the series with Mus musculus [4]. Further, in the series on THP-1, the outcome was Active. Moreover, in the series listed under Rattus norvegicus [5], the t1/2 was found to be 1.7 h. In addition, half-maximal inhibition at Cytochrome P450 2C9 (IC50) required 9900 nM. Moreover, the Drug metabolism result in the series with Hepatocyte [6], in the series with Hepatocyte [7], with Hepatocyte [9] and in the series on Hepatocyte [12] was “Not Active” throughout. The AUC/dose in the series listed under Rattus norvegicus [8] was determined as 38 kg·min/L. Besides, in the series on HepG2, the EC170 came out at 0.09 µM. In addition, the Vd in [10] is 2.1 L/kg. Also, the inhibition entry in the series with PBMC [11] and with PBMC [13] was “Dose-dependent effect” throughout. Besides, in the series with Salmonella typhimurium, the Activity entry is recorded as “Non-toxic”. Also, the bioavailability in series [14] was found to be 66%.
As to `COc1cc2c(Nc3cccc4cccnc34)c(C(N)=O)cnc2cc1-c1c(C)noc1C`, the outcome in the series with THP-1, in the series on PBMC [11] and with PBMC [13] was Active. The molecule also showed a half-life in [15] of 1.1 h. The IC50 against Cytochrome P450 2C9 stood at 2800 nM; against Cytochrome P450 3A4 it was 3900 nM. Moreover, the Drug metabolism result in the series on Hepatocyte [6], in the series with Hepatocyte [7], in the series on Hepatocyte [9] and with Hepatocyte [12] was “Active” each time. This molecule also gave an AUC/dose in the series listed under Rattus norvegicus [8] of 12 kg·min/L. Further, the EC170 with HepG2 was 0.22 µM. Moreover, in series [10], the Vd was found to be 4 L/kg. In the series with Salmonella typhimurium, the Activity result is listed as “Toxic”. Besides, the bioavailability in [14] is 59%. This molecule returned a clearance in series [16] of 50 mL/min/kg.
In the case of `COc1cc2c(Nc3ccccc3C(C)(C)C)c(C(N)=O)cnc2cc1-c1c(C)noc1C`, the outcome with THP-1, with PBMC [11] and in the series on PBMC [13] was Active. Moreover, the 50% inhibitory concentration (IC50) against Cytochrome P450 2C9 came out at 1200 nM; against Cytochrome P450 3A4, 1900 nM. Besides, the EC170 in the series with HepG2 came to 0.13 µM.

What is called inhibition in vivo is the relative decrease from the control value, in per cent. The IC50 is the concentration at which inhibition is half-maximal. Higher therefore signals a need for much substance. As a reminder, the bioavailability is the share of a dose that reaches the circulation, judged against a reference dose that is usually intravenous. For orientation: half-life means the time in which the quantity being followed falls by half. Usually clearance stands for the rate of elimination divided by the concentration.
